Legend:
Phakopsora pachyrhizi = assay: Test A: test suspension sprayed on soybean seedlings one day before inoculation with Phakopsora pachyrhizi spores (Asian soybean rust), visual disease rating; format: in vivo; settings: 100 = 100% disease control, 0 = no control
Description: General protocol for preparing test suspensions for Tests A-C: the test compounds were first dissolved in acetone in an amount equal to 3% of the final volume and then suspended at the desired concentration (in ppm) in acetone and purified water (50/50 mix by volume) containing 250 ppm of the surfactant PEG400 (polyhydric alcohol esters). The resulting test suspensions were then used in Tests A-C.
The test solution was sprayed to the point of run-off on soybean seedlings. The following day the seedlings were inoculated with a spore suspension of Phakopsora pachyrhizi (the causal agent of Asian soybean rust) and incubated in a saturated atmosphere at 22° C. for 24 h, and then moved to a growth chamber at 22° C. for 8 days, after which time visual disease ratings were made.
Results for Tests A-C are given in Table A. In the Table, a rating of 100 indicates 100% disease control and a rating of 0 indicates no disease control (relative to the controls). An asterisk “*” or a double asterisk “**” next to the rating value indicates a 50 ppm or 10 ppm test suspension was used, respectively. A dash (-) indicates the compound was not tested.

[1] = system: Puccinia recondita f. sp. tritici; assay: Test B: test suspension sprayed on wheat seedlings one day before inoculation with Puccinia recondita f. sp. tritici spores (wheat leaf rust), disease rating; format: in vivo; settings: 100 = 100% disease control, 0 = no control
Description: General protocol for preparing test suspensions for Tests A-C: the test compounds were first dissolved in acetone in an amount equal to 3% of the final volume and then suspended at the desired concentration (in ppm) in acetone and purified water (50/50 mix by volume) containing 250 ppm of the surfactant PEG400 (polyhydric alcohol esters). The resulting test suspensions were then used in Tests A-C. The test solution was sprayed to the point of run-off on wheat seedlings. The following day the seedlings were inoculated with a spore suspension of Puccinia recondita f. sp. tritici (the causal agent of wheat leaf rust) and incubated in a saturated atmosphere at 20° C. for 24 h, and then moved to a growth chamber at 20° C. for 6 days, after which time disease ratings were made. Results for Tests A-C are given in Table A. In the Table, a rating of 100 indicates 100% disease control and a rating of 0 indicates no disease control (relative to the controls). An asterisk “*” or a double asterisk “**” next to the rating value indicates a 50 ppm or 10 ppm test suspension was used, respectively. A dash (-) indicates the compound was not tested.

| SMILES | Test A rating (disease control) (Phakopsora pachyrhizi; 10 ppm test suspension) [%] | Test B rating (disease control) ([1]; 10 ppm test suspension) [%] | further results |
| --- | --- | --- | --- |
| C#CCOC(=O)c1cnn(Cc2ccc(OCC3(C(F)(F)F)OCCO3)cc2)c1 [compound 15] | 100 | 0 | – |
| CCCCCCOC(=O)c1cnn(Cc2ccc(OCC3(C(F)(F)F)OCCO3)cc2)c1 [compound 16] | 99 | 0 | – |
| O=C(OCc1ccc(Cl)c(Cl)c1)c1cnn(Cc2ccc(OCC3(C(F)(F)F)OCCO3)cc2)c1 [compound 17] | 100 | 0 | – |
| O=C(OCc1ccc(F)c(F)c1)c1cnn(Cc2ccc(OCC3(C(F)(F)F)OCCO3)cc2)c1 [compound 18] | 100 | 0 | – |
| CN(C)C(=O)C1=NOC(c2ccc(OCC3(C(F)(F)F)OCCO3)cc2)C1 (stereo not drawn) [compound 22] | 38 | 0 | – |
| CCS(=O)(=O)Cc1ccc(OCC2(C(F)(F)F)OCCO2)cc1 [compound 23] | 0 | 19 | – |
| CS(=O)(=O)c1ccc(OCC2(C(F)(F)F)OCCO2)cc1 [compound 24] | 81 | 91 | – |
| CN(C)S(=O)(=O)c1ccc(OCC2(C(F)(F)F)OCCO2)cc1 [compound 25] | 0 | 0 | – |
| CCOC(=O)c1cnn(C(C)c2ccc(OCC3(C(F)(F)F)OCCO3)cc2)c1 (stereo not drawn) [compound 26] | 99 | 0 | – |
| COC(=O)NN=Cc1ccc(OCC2(C(F)(F)F)OCCO2)cc1 [compound 27] | 0 | 0 | – |
| FC(F)(F)C1(COc2ccc(OCC3(C(F)(F)F)OCCO3)cc2)OCCO1 [compound 28] | 0 | 0 | – |
| CCOC(=O)c1cnn(Cc2ccc(O/C=C(\OC)C(F)(F)F)cc2)c1 [compound 53] | – | – | Test A rating (disease control) (Phakopsora pachyrhizi; 50 ppm test suspension): 100%; Test B rating (disease control) ([1]; 50 ppm test suspension): 67% |
| CCOC(=O)c1cnn(Cc2ccc(O/C=C(\OCCOC)C(F)(F)F)cc2)c1 [compound 54] | 0 | 0 | – |
| C=CCO/C(=C\Oc1ccc(Cn2cc(C(=O)OCC)cn2)cc1)C(F)(F)F [compound 55] | 0 | 0 | – |
| C#CCO/C(=C\Oc1ccc(Cn2cc(C(=O)OCC)cn2)cc1)C(F)(F)F [compound 56] | 38 | 0 | – |
| CCO/C(=C\Oc1ccc(S(C)(=O)=O)cc1)C(F)(F)F [compound 60] | 0 | 0 | – |
| CCO/C(=C\Oc1ccc(S(=O)(=O)N(C)C)cc1)C(F)(F)F [compound 61] | 0 | 0 | – |
| CCO/C(=C\Oc1ccc(CS(=O)(=O)CC)cc1)C(F)(F)F [compound 62] | 0 | 0 | – |
| CCCO/C(=C\Oc1ccc(Cn2cc(C(=O)OCC)cn2)cc1)C(F)(F)F [compound 65] | 100 | 0 | – |
| CCOC(=O)c1cnn(Cc2ccc(CCC3(C(F)(F)F)OCCO3)cc2)c1 [compound 67] | – | – | Test A rating (disease control) (Phakopsora pachyrhizi; 50 ppm test suspension): 65%; Test B rating (disease control) ([1]; 50 ppm test suspension): 0% |
| CCO/C(=C\Oc1ccc(C(=O)O)cc1)C(F)(F)F [compound 72] | – | – | Test A rating (disease control) (Phakopsora pachyrhizi; 50 ppm test suspension): 13%; Test B rating (disease control) ([1]; 50 ppm test suspension): 0% |
| CCO/C(=C\Oc1ccc(C(=O)OC(C)C)cc1)C(F)(F)F [compound 73] | 0 | 0 | – |
| C=CCOC(=O)c1ccc(O/C=C(\OCC)C(F)(F)F)cc1 [compound 74] | 0 | 0 | – |

| SMILES | Test A rating (disease control) (Phakopsora pachyrhizi; 10 ppm test suspension) [%] | Test B rating (disease control) ([1]; 10 ppm test suspension) [%] | further results |
| --- | --- | --- | --- |
| C#CCOC(=O)c1ccc(O/C=C(\OCC)C(F)(F)F)cc1 [compound 75] | 0 | 0 | – |
| CC(C)CS(=O)(=O)NCc1ccc(OCC2(C(F)(F)F)OCCO2)cc1 [compound 76] | 0 | 0 | – |
| FC(F)(F)C1(COc2ccc(CNC(=S)NC3CCCCC3)cc2)OCCO1 [compound 77] | 0 | 0 | – |
| CCOC(=O)NCc1ccc(OCC2(C(F)(F)F)OCCO2)cc1 [compound 78] | 94 | 0 | – |
| CCO/C(=C\Oc1ccc(C(C)=O)cc1)C(F)(F)F [compound 79] | – | – | Test A rating (disease control) (Phakopsora pachyrhizi; 50 ppm test suspension): 0%; Test B rating (disease control) ([1]; 50 ppm test suspension): 0% |
| CCOC(=O)Cc1nnn(Cc2ccc(O/C=C(\OCC)C(F)(F)F)cc2)n1 [compound 83] | 82 | 0 | – |
| CCOC(=O)Cc1nnnn1Cc1ccc(O/C=C(\OCC)C(F)(F)F)cc1 [compound 84] | 0 | 0 | – |
| CCO/C(=C\Oc1ccc(Cn2cncc2C(=O)OC)cc1)C(F)(F)F [compound 85] | 89 | 0 | – |
| CCO/C(=C\Oc1ccc(Cn2cnc(C(=O)OC)c2)cc1)C(F)(F)F [compound 86] | 99 | 0 | – |
| CCO/C(=C\Oc1ccc(Cn2ncc3cccnc32)cc1)C(F)(F)F [compound 87] | 0 | 0 | – |
| CCO/C(=C\Oc1ccc(Cn2cc(C(=O)OC(C)(C)C)cn2)cc1)C(F)(F)F [compound 89] | 0 | 0 | – |
| CCOC(=O)c1cc(OC)n(Cc2ccc(O/C=C(\OCC)C(F)(F)F)cc2)n1 [compound 90] | 100 | 0 | – |
| CCO/C(=C\Oc1ccc(Cn2cc(C(=O)OC)c3ccccc32)cc1)C(F)(F)F [compound 91] | 0 | 0 | – |
| CCO/C(=C\Oc1ccc(CN2OCC(C)(C)C2=O)cc1)C(F)(F)F [compound 92] | 0 | 0 | – |
| O=C(O)c1cnn(Cc2ccc(OCC3(C(F)(F)F)OCCO3)cc2)c1 [compound 93] | 96 | 0 | – |
| CCCOC(=O)c1ccc(O/C=C(\OCC)C(F)(F)F)cc1 [compound 94] | 0 | 0 | – |
| CCOC(=O)c1ccc(O/C=C(\OCC)C(F)(F)F)cc1 [compound 95] | 0 | 0 | – |
| CCOC(=O)C=CCOc1ccc(O/C=C(\OCC)C(F)(F)F)cc1 [compound 96] | 13 | 0 | – |
| N#Cc1ccc(OCC2(C(F)(F)F)OCCO2)cc1 [compound 98] | – | – | Test A rating (disease control) (Phakopsora pachyrhizi; 250 ppm test suspension): 100%; Test B rating (disease control) ([1]; 250 ppm test suspension): 100% |
| CCO/C(=C\Oc1ccc(C(N)=O)cc1)C(F)(F)F [compound 99] | 0 | 80 | – |
| CCO/C(=C\Oc1ccc(C(=O)NC2CC2)cc1)C(F)(F)F [compound 100] | 0 | 0 | – |
| CCO/C(=C\Oc1ccc(C(=O)NC(C)C)cc1)C(F)(F)F [compound 101] | 0 | 0 | – |
